Source: patent US7524851B2 (Robert Bosch Gesellschaft fur Medizinische Forschung (RBMF), priority 2003, dated 2009)
Each block holds one compound with its values, some of them ahead of it.

Tests used:
[1] = tested on: primary CD4+ T lymphocytes; assay: Annexin V/propidium iodide FACS apoptosis of stimulated primary blood CD4+ T lymphocytes; type: cell-based, human; conditions: anti-CD3, anti-CD28, rIL-2; 4-5 days; at least comparable to 6-MP
Description: Isolation of primary CD4^+ T lymphocytes and lamina propria cells: Human peripheral blood mononuclear cells (PBMCs) from healthy volunteers (25-42 years of age) and patients with Crohn's disease (31-65 years of age) were isolated using Ficoll-Hypaque gradients. PBMCs were further purified using CD4 monoclonal antibodies attached to immunomagnetic beads according to the manufacturer's protocol, followed by treatment with Detachabead (Dynal; Oslo, Norway). In some cases, CD4^+ T cells were further separated by negative selection techniques using CD45RO or CD45RA monoclonal antibodies (PharMingen; Heidelberg, Germany) and immunomagnetic beads (Dynal). […] Lamina propria mononuclear cells (LPMCs) from patients with IBD were isolated from gut specimens using a short-term (5-minute) digestion protocol with collagenase V, hyaluronidase (Sigma-Aldrich; St. Louis, Mo., USA), and DNase (Roche; Mannheim, Germany), as recently described in detail in Holtmann et al., Eur. J. Immunol. 32:3142-3151 (2002). Briefly, specimens were washed in calcium- and magnesium-free HBSS (HBSS-CMF), cut into 0.5-cm pieces, and incubated twice in HBSS containing EDTA (0.37 mg/ml) and DTT (0.145 mg/ml) at 37° C. for 15 minutes, followed by subsequent digestion for 5 minutes with collagenase V 400 (1 mg/ml), deoxyribonuclease (0.1 mg/ml DNase), and hyaloronidase (0.1 mg/ml) in a shaking incubator at 37° C. The digested tissue was washed twice in RPMI medium containing 10% FCS and centrifuged. The tissue was finally mechanically homogenized (DAKO homogenizer; Hamburg, Germany) for 4 minutes, and cells were filtered through a sterile 40-μm cell strainer (Falcon; San Diego, Calif., USA).
Such CD28 costimulation is known to prevent apoptosis of primary T cells during T cell receptor (TCR) stimulation through activation of bcl-x, and NF-κB (Noel et al., J. Immunol. 157:636-647 (1996); Radvanyi et al., J. Immunol. 156:1788-1798 (1996); Khoshnan et al., J. Immunol. 165:1743-1754 (2000)). […] In addition, recombinant IL-2 (R&D Systems; Wiesbaden, Germany) was used at a final concentration of 40 U/ml in all experiments. Lamina propria T lymphocytes were stimulated with antibodies to CD2 (4 μg/ml; Immunotech; Marseille, France) and CD28 (1 μg/ml). […] To block CD95L-mediated (FasL-mediated) apoptosis, the NOK-1 antibody (4 μg/ml, PharMingen) was used whose Fab fragments bind to human CD95L (FasL) (Jodo et al., J. Immunol. 165:5487-5494 (2000)). Recombinant human FasL (Alexis Biochemicals; Heidelberg, Germany) was used as a positive control for the NOK-1 antibody (10 μg/ml).
For FACS analysis, apoptotic cells were detected by staining with annexin V and propidium iodide using the Annexin V FITC Apoptosis Detection Kit I (PharMingen) (Atreya et al., Nat. Med. 6:583-588 (2000)). In brief, T cells were washed twice in PBS, and the pellet was resuspended in annexin V binding buffer (PharMingen) at a concentration of 10^6 cells per milliliter. Annexin V FITC and propidium iodide were added (5 ill of each per 10^5 cells). Samples were gently mixed and incubated for 15 minutes at room temperature in the dark before FACS analysis. To verify the results obtained with the annexin V/propidium iodide staining, analysis of T cells displaying DNA fragmentation was also determined by the Nicoletti technique, as described in (Nicoletti et al., J. Immunol. Methods 139:271-279 (1991)). 10^6 T cells were fixed in 70% ethanol, washed once in HBSS, resuspended in 1 ml of HBSS and 1 ml of phosphate citric acid buffer (0.2 mol/l Na2PO4 and 0.004 mol/l citric acid [pH 7.8]), and incubated at room temperature for 5 minutes. After centrifugation, cells were resuspended in 1 ml of HBSS containing 20 μg/ml propidium iodide and 10 U DNase-free RNase A and incubated at room temperature for 30 minutes. Finally, cells were analyzed on a FACScan flow cytometer. Because of the fragmentation of DNA, apoptotic cells appear as hypodiploid in the DNA histogram.

[2] = tested on: Rac1; assay: Rac1 activation assay (GTP-bound Rac1, PAK pull-down); type: cell-based, human; conditions: primary T cells, 3 days
Description: (§1) Cell lysates were incubated with 10 μg/ml PAK-1 agarose (Rac assays) or 10 μg/mg Raf RBD agarose (Ras assay) for 60 minutes (Rac assays) or 30 minutes (Ras assays) at 4° C. Agarose beads were collected by centrifugation followed by denaturation, boiling of the samples, and SDS-PAGE analysis.

[3] = tested on: Ras; assay: Ras activation assay (GTP-bound Ras, Raf RBD pull-down); type: cell-based, human; conditions: primary T cells
Description: as §1

[4] = tested on: primary CD4+ T lymphocytes; assay: Mitochondrial membrane potential (JC-1, FACS); conditions: positive control, 50 μM for 18 hours
[5] = Interconversion of TGDP and TGTP in spiked blank RBC during sample work-up; type: in vitro ADME, human
Description: Calibration samples and controls were prepared as described in Rabel et al., supra, with minor modifications. Known amounts of 6-thioguanosine phosphates were added to a mixture of EDTA and 10 μl of DTT to give a final volume of 150 μl. Finally, 100 μl of blank RBC were added and the mixture thoroughly homogenized by vortex mixing. Sample preparation was performed as described above. Calibration curves covered the range of 10 to 50 pmol for TGMP, 10 to 100 pmol for TGDP, and 20 to 400 pmol for TGTP per sample referred to 100 μl of packed blank RBC. Standard curves were obtained by linear regression using peak areas versus concentrations. Because of the partial conversion of TGDP to TGTP and vice versa, both peak areas were summed up. In addition, combinations of 5 to 20 percent of TGDP per sum of TGDP and TGTP were prepared.
The percentage of conversion of TGDP to TGTP and of TGTP to TGDP was assessed using three sets of TGDP and TGTP calibrators prepared with different RBC.

[6] = Stability of thioguanosine phosphates in patient blood samples; type: in vitro ADME, human
Description: Stability of the thioguanosine phosphates in blood samples was examined by storing blood samples from patients for up to 5 days at ambient temperature. RBC were isolated after the specified storage time and frozen at −80° C. until analysis.

[7] = Interconversion of TGDP and TGTP in spiked blank RBC during sample work-up; type: in vitro ADME, human; remark: listed apart in the source
[8] = biological target: Recombinant Rac1 (Homo sapiens, UniProt P63000); assay: Competition of [3H]GTP binding to recombinant Rac1; conditions: 0-500 μM, PAK pull-down, scintillation counting
Description: (§2) Rac and Ras activation assays: The levels of Rac1- and Ras-bound GTP were determined by immunoblot techniques (Upstate Biotech; London, United Kindom). […] Cell lysates were incubated with 10 μg/ml PAK-1 agarose (Rac assays) or 10 μg/mg Raf RBD agarose (Ras assay) for 60 minutes (Rac assays) or 30 minutes (Ras assays) at 4° C. Agarose beads were collected by centrifugation followed by denaturation, boiling of the samples, and SDS-PAGE analysis. Proteins were transferred to nitrocellulose membranes and incubated with 1 μg/ml murine anti-human Rac1 or anti-human Ras (clone Ras10) antibodies overnight at 4° C., followed by detection with goat anti-mouse HRP-conjugated IgG (1:1000 dilution) and the ECL detection system. To analyze the capacity of TGTP to bind to Rac1 or Ras, chemically synthesized TGTP (obtained from Jena Bioscience, Jena, Germany) was used. Recombinant Rac1 or Ras was incubated with radiolabeled GTP ([^3H]GTP, Amersham) and increasing amounts of TGTP (0-500 μM) followed by Rac1 and Ras pull-down through PAK and Raf RGD and analysis of [^3H]GTP-bound Rac1 or Ras by scintillation counting.

[9] = tested on: Recombinant Ras; assay: Competition of [3H]GTP binding to recombinant Ras; conditions: 0-500 μM, Raf RGD pull-down, scintillation counting
Description: as §2

[10] = Stability during storage of RBC at −80° C.; type: in vitro ADME, human
Description: Stability during storage of RBC at −80° C. was investigated in samples from 18 patients. RBC which were analyzed within one week after isolation were compared with RBC stored for up to 14 weeks.

[11] = Stability of thioguanosine phosphates in extracted samples; type: physicochemical
Description: Stability of thioguanosine phosphates in extracted samples was investigated by storage of extracted samples from 12 patients before oxidation and after oxidation for 14 days and comparing the results with the same samples analyzed immediately after oxidation.

[12] = tested on: primary CD4+ T lymphocytes; assay: Blocking of caspase-8 and caspase-9 activity in 6-MP-induced apoptosis; type: cell-based, human; conditions: 10 μM inhibitor; FACS after 5 days
Description: Blocking of caspase-8 and caspase-9 activity: Primary CD4^+ T lymphocytes from peripheral blood were isolated as described above and stimulated with antibodies to CD3 and CD28 in the presence or absence of indicated amounts of N-acetyl-Leu-Glu-His-Asp-aldehyde (Biomol), a reversible inhibitor of caspase-9, or Ac-Ile-Glu-Thr-Asp-aldehyde (Bachem; Heidelberg, Germany), an inhibitor of caspase-8. Apoptosis was determined by FACS analysis after 5 days of cell culture.

[13] = more than 10 different blank RBC
[14] = 5 days of storage of blood at ambient temperature

Compound: Nc1nc2nc[nH]c2c(=S)[nH]1 [6-TG, 6-thioguanine]
apoptosis of primary blood CD4+ T lymphocytes [1]: marked apoptosis
CD28 costimulation induced Rac1 activation (GTP-bound Rac1) [2]: strongly suppressed
activation of Ras (GTP-bound Ras) [3]: fail to modulate

Compound: N#CC(C#N)=NNc1ccc(OC(F)(F)F)cc1 [FCCP, carbonylcyanide-4-(trifluoromethoxy)-phenylhydrazone]
ΔΨm in primary CD4+ T cells [4]: marked reduction of ΔΨm

Area % of calibrator added, area calibrator × 100/(area TGTP + area TGDP), mean (n = 6) ([5]; spiked RBC 1): 91.6%
Area % of calibrator added, area calibrator × 100/(area TGTP + area TGDP), mean (n = 6) ([5]; spiked RBC 2): 92.6%
Area % of calibrator added, area calibrator × 100/(area TGTP + area TGDP), mean (n = 6) ([5]; spiked RBC 3): 92.8%
conversion of TGDP to TGTP ([5]; spiked samples from three healthy volunteers): 7-8%
change of amount of TGDP ([6]; up to 5 days of storage of blood at ambient temperature): did not change significantly
Area % of calibrator added, area calibrator × 100/(area TGTP + area TGDP), mean (n = 6) ([7]; 0.9% NaCl): 100.0%
conversion of TGDP ([7]; 0.9% NaCl): did not show any conversion
conversion of TGDP to TGTP [7, 13]: 6-15%
Compound: Nc1nc2c(ncn2[C@@H]2O[C@H](COP(=O)(O)OP(=O)(O)O)[C@@H](O)[C@H]2O)c(=S)[nH]1 [TGDP, 6-thioguanosine diphosphate]

amount of TGMP as share of total thioguanosine phosphates [6, 14]: more than 70%
Compound: Nc1nc2c(ncn2[C@@H]2O[C@H](COP(=O)(O)O)[C@@H](O)[C@H]2O)c(=S)[nH]1 [TGMP, 6-thioguanosine monophosphate]

binding to recombinant Rac1 / suppression of [3H]GTP-bound Rac1 ([8]; listed as 6-Thio-GTP): concentration-dependent suppression
competition with GTP for recombinant Ras / [3H]GTP-bound Ras [9]: did not significantly compete
competition with GTP for recombinant Ras / [3H]GTP-bound Ras ([9]; listed as 6-Thio-GTP): little effect
Area % of calibrator added, area calibrator × 100/(area TGTP + area TGDP), mean (n = 6) ([5]; spiked RBC 1): 90.3%
Area % of calibrator added, area calibrator × 100/(area TGTP + area TGDP), mean (n = 6) ([5]; spiked RBC 2): 93.9%
Area % of calibrator added, area calibrator × 100/(area TGTP + area TGDP), mean (n = 6) ([5]; spiked RBC 3): 82.2%
conversion of TGTP to TGDP ([5]; subject 1): 9.7%
conversion of TGTP to TGDP ([5]; subject 2): 6.1%
conversion of TGTP to TGDP ([5]; third sample): ~18%
TGTP recovered [6, 14]: about 5%
change of TGTP on storage of blood samples ([6]; one day at ambient temperature): marked decrease
decrease of the proportion of TGTP ([10]; RBC from 18 patients at −80° C. for 8 to 14 weeks, thawed twice): 7.6±7.6%
effect of repeated thawing and freezing of RBC samples ([10]; dephosphorylation of TGTP to TGDP): progression in dephosphorylation
reduction of the proportion of TGTP ([11]; non-oxidized extracts kept 14 days at ambient temperature before oxidation, average (range from −5 to −12%)): 7%
decrease of TGTP proportion ([11]; oxidized samples stored for 14 days (range from −6 to −13%)): approximately 8%
Area % of calibrator added, area calibrator × 100/(area TGTP + area TGDP), mean (n = 6) ([7]; 0.9% NaCl): 95.6%
conversion of TGTP to TGDP [7, 13]: 6-20%
TGDP found after sample work-up ([7]; saline samples spiked with TGTP): about 5%
Compound: Nc1nc2c(ncn2[C@@H]2O[C@H](COP(=O)(O)OP(=O)(O)OP(=O)(O)O)[C@@H](O)[C@H]2O)c(=S)[nH]1 [TGTP, 6-thioguanosine triphosphate]
binding to recombinant Rac1 / suppression of [3H]GTP-bound Rac1 [8]: able to bind to recombinant Rac1 under in vitro conditions (although with lower affinity than GTP)

Compound: Ac-IETD-aldehyde [acetyl-IETD-CHO]
effect on 6-MP-induced apoptosis of primary T lymphocytes [12]: lesser effects

Compound: N-acetyl-Leu-Glu-His-Asp-aldehyde (Ac-LEHD-aldehyde; SMILES CC(=O)N[C@@H](CC(C)C)C(=O)N[C@@H](CCC(=O)O)C(=O)N[C@@H](Cc1c[nH]cn1)C(=O)N[C@H](C=O)CC(=O)O) [acetyl-LEHD-CHO]
effect on 6-MP-induced apoptosis of primary T lymphocytes [12]: suppressed 6-MP-induced apoptosis
